One may read the Ki as the dissociation constant of the complex between target and ligand, obtained from inhibition or displacement. A higher Ki goes with a looser hold on the target.

The text below walks through data of publication PMC6274786 (International Journal of Molecular Sciences, 2018).

The structures appear in SMILES notation.

One test relates to MES-induced seizure. The test can be described thus: Maximal electroshock (MES)-induced seizure. It counts as in vivo, Wistar rats. The conditions noted are these: 10 mg/kg i.p.; for MES-Induced Seizure (protection class): 50 Hz, 120 mA, 1 s. An excerpt: As previously described, the seizures were induced in rats with a 50 Hz alternating current of 120 mA intensity. The current was applied through ear electrodes for 1 s. Protection against the spread of MES-induced seizure was defined as the abolition of the tonic hind limb extension (THLE) component of the seizure. For the first screening of protective effects of test compounds 1–16 in the MES-induced seizure model, the animals were divided into eighteen groups of seven rats (n = 7) as follows; group (1) control group injected with vehicle (SAL), group (2) positive control group in which rats were injected with PHT at a dose of 10 mg/kg (this being the minimal dose of PHT that protected animals against the spread of MES-induced seizures without mortality), and groups (3)–(18) animals in the experimental groups were administered H3R antagonists 1–16 at a dose of 10 mg/kg. In another MES experiment in three separate groups of six rats (n = 6), H3R antagonist 4 with the most promising protection in MES model was administered at doses of 2.5, 5, or 15 mg/kg, i.p. 30–45 min before the MES challenge.
A general note: Protection in the maximal electroshock model is a classic sign of anticonvulsant action.

In another test the test system is PTZ-induced seizure. Briefly: Pentylenetetrazole (PTZ)-induced seizure. The conditions noted are these: for PTZ-Induced Seizure (protection class): PTZ 60 mg/kg. It counts as in vivo, Wistar rats. The method, then: (§1) In this study and according to previously used protocols, two chemical agents have been used to induce seizures, namely pentylenetetrazole (PTZ, 60 mg/kg, i.p.) and strychnine (STR, 3.5 mg/kg, i.p.). PTZ 60 mg/kg or STR 3.5 mg/kg were administered i.p. to all groups of seven rats (n = 7), that is, animals pretreated with vehicle or test compounds 1–16. Vehicle, VPA (300 mg/kg, i.p.), [26, 47, 48, 49] or test compounds 1–16 (10 mg/kg, i.p.) were systemically administered 30–45 min before PTZ (60 mg/kg, i.p.) or STR (3.5 mg/kg, i.p.) injection, and animals were directly observed for any signs of convulsion for a duration of 30 min. The observed scores as well as percent protection against generalized tonic-clonic seizure (GTCS) were graded and scaled according to the Racine scale (stage 0, no change in behavior; stage 1, stereotype mouthing, eye blinking, and/or mild facial clonus; stage 2, head nodding and/or severe facial clonus; stage 3, myoclonic jerk in forelimbs; stage 4, clonic convulsions in the forelimbs with rearing; stage 5, generalized colonic convulsions associated with loss of balance) to evaluate the protection provided by the respective test compound against seizures. The animals were divided into eighteen groups of seven rats (n = 7) and treated as follows.
(§2) (1) Control group injected with vehicle + PTZ (SAL group), (2) positive control group in which rats were injected with VPA (300 mg/kg) + PTZ (VPA group), and animals in the test groups (3)–(18) were systemically administered with test compounds 1–16 (10 mg/kg), respectively. An additional PTZ experiment was conducted using three different groups of seven rats (n = 7), the H3R ligand with the most promising protection in PTZ model was administered at doses of 2.5, 5, or 15 mg/kg, i.p. 30–45 min before the PTZ challenge. […] The same experimental procedure was followed in the STR-induced seizure model applying the reference drug VPA, which was used at a dose of 300 mg/kg, i.p. (Figure 3, Table 2).

The subject of a further test is STR-induced seizure. Briefly: Strychnine (STR)-induced seizure. The conditions noted are these: for STR-Induced Seizure (protection class): STR 3.5 mg/kg. It counts as in vivo, Wistar rats. The procedure: as §1, §2
The target of another test is T1, human histamine H3R (Homo sapiens, UniProt Q9Y5N1).
T1 construct: expressed in transfected cells
T1 sequence (Q9Y5N1 whole entry): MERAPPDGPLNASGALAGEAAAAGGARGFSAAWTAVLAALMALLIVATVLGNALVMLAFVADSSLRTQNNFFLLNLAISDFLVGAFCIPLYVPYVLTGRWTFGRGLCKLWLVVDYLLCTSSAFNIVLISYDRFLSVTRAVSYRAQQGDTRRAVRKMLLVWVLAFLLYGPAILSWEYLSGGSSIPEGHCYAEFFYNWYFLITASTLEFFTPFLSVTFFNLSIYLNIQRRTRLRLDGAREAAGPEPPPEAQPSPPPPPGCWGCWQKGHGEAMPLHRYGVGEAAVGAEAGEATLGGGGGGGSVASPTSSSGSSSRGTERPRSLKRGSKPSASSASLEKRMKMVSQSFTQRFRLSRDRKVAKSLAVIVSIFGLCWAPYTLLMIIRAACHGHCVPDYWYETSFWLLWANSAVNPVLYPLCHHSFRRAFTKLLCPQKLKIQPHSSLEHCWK
Briefly: [3H]Nα-methylhistamine radioligand displacement assay, HEK-293 cell membranes. The test is classed as binding. The method, then: As described previously, the affinity for the human histamine H3R was tested utilizing radioligand displacement assays with [^3H]N^α-methylhistamine at membrane preparations from human embryonic kidney (HEK)-293 cells, stably expressing the receptor. […] The analysis of data was conducted by the software GraphPad Prism 7 (San Diego, CA, USA), using the “one-site competition” equation. Ki values were calculated from the 50 percent of inhibitory concentration (IC50) values according to the Cheng-Prusoff equation [44]
A general note: Displacement assays read how much labelled ligand stays bound in the presence of the test substance.

Turning to `CC1CCCN(CCCCCOc2ccc3ccccc3c2)C1.O=C(O)C(=O)O` (stereo not drawn) [Ligand 1, 3-methyl-1-(5-(naphthalen-2-yloxy)pentyl)piperidine hydrogen oxalate], the “MES-Induced Seizure (protection class)” value in the test on MES-induced seizure is on record as “−”. Besides, in the test with PTZ-induced seizure (10 mg/kg i.p.), the “PTZ-Induced Seizure (protection class)” value is given as “−”. In addition, in the test on STR-induced seizure (10 mg/kg i.p.), the “STR-Induced Seizure (protection class)” value is given as “−”.
Take `O=C(O)C(=O)O.c1ccc2cc(OCCCCCN3CCCCCC3)ccc2c1` [Ligand 2, 1-(5-(naphthalen-2-yloxy)pentyl)azepane hydrogen oxalate]: the “MES-Induced Seizure (protection class)” value with MES-induced seizure is “−”. Also, the “PTZ-Induced Seizure (protection class)” value in the test on PTZ-induced seizure (10 mg/kg i.p.) is “−”. Further, the “STR-Induced Seizure (protection class)” value in the test with STR-induced seizure (10 mg/kg i.p.) was “−”.
Regarding `CC1CCCN(CCCCCCOc2ccc3ccccc3c2)C1.O=C(O)C(=O)O` (stereo not drawn) [Ligand 3, 3-methyl-1-(6-(naphthalen-2-yloxy)hexyl)piperidine hydrogen oxalate], the “MES-Induced Seizure (protection class)” value in the test with MES-induced seizure is recorded as “++ (high protective effect (THLE duration <1, seizure score 0))”. Moreover, in the test with PTZ-induced seizure (10 mg/kg i.p.), the “PTZ-Induced Seizure (protection class)” value is reported as “−”. For the same compound, the “STR-Induced Seizure (protection class)” value with STR-induced seizure (10 mg/kg i.p.) is listed as “−”.
`O=C(O)C(=O)O.O=C(c1ccccc1)c1ccc(OCCCCCCN2CCCCC2)cc1` [Ligand 5, phenyl(4-(6-(piperidin-1-yl)hexyloxy)phenyl)methanone hydrogen oxalate]: the “MES-Induced Seizure (protection class)” value in the test with MES-induced seizure is given as “++ (high protective effect (THLE duration <1, seizure score 0))”. For the same compound, the “PTZ-Induced Seizure (protection class)” value in the test with PTZ-induced seizure (10 mg/kg i.p.) is “−”. The compound also registered a Ki at human histamine H3R of 41.1 nM. In the test on STR-induced seizure (10 mg/kg i.p.), the “STR-Induced Seizure (protection class)” value was “−”.
For the compound `O=C(O)C(=O)O.O=C(c1ccccc1)c1cccc(OCCCCCCN2CCCCC2)c1` [Ligand 8, phenyl(3-(6-(piperidin-1-yl)hexyloxy)phenyl)methanone hydrogen oxalate], the “MES-Induced Seizure (protection class)” value with MES-induced seizure is recorded as “+ (moderate protective effect (tonic hind limb extension (THLE) duration in the range of 2–5 s, seizure score in the range of 2–4))”. Further, the “PTZ-Induced Seizure (protection class)” value with PTZ-induced seizure (10 mg/kg i.p.) was “−”. On human histamine H3R, this compound showed a Ki of 76.1 nM. In the test with STR-induced seizure (10 mg/kg i.p.), the “STR-Induced Seizure (protection class)” value is on record as “−”.
As for `O=C(O)C(=O)O.O=C(c1ccccc1)c1cccc(OCCCCCCN2CCCCCC2)c1` [Ligand 10, (3-(6-(azepan-1-yl)hexyloxy)phenyl)(phenyl)methanone hydrogen oxalate], the “MES-Induced Seizure (protection class)” value with MES-induced seizure is on record as “−”. For the same compound, the “PTZ-Induced Seizure (protection class)” value in the test on PTZ-induced seizure (10 mg/kg i.p.) is reported as “−”. The Ki on human histamine H3R was determined as 69.5 nM. In the test with STR-induced seizure (10 mg/kg i.p.), the “STR-Induced Seizure (protection class)” value is “−”.
Turning to `O=C1NC(=O)C(c2ccccc2)(c2ccccc2)N1` [PHT, phenytoin, reference compound], in the test on MES-induced seizure, the “MES-Induced Seizure Average THLE” value was determined as 0.90 ± 0.19 s.
In the case of `C[C@@H](N)Cc1c[nH]cn1` [RAMH, (R)-α-methylhistamine, reference compound], the “MES-Induced Seizure Average THLE” value in the test with MES-induced seizure was found to be 7.92 ± 0.60 s. In addition, the “protective effect in MES-induced seizure (in words)” value in the test with MES-induced seizure (vs saline-treated group) is reported as “did not affect MES-induced seizures”. Besides, in the test with PTZ-induced seizure (10 mg/kg i.p.), the “PTZ-Induced Seizure % Protection against GTCS” value was 14.29% and the “PTZ-Induced Seizure Average Seizure Score” value stood at 4.29 ± 0.25. The “protective effect in PTZ-induced seizure (in words)” value with PTZ-induced seizure (10 mg/kg i.p., observed over 30 min, vs saline-treated group) is recorded as “did not affect seizure score”. In addition, in the test with STR-induced seizure (10 mg/kg i.p.), the “STR-Induced Seizure % Protection against GTCS” value is listed as 28.57% and the “STR-Induced Seizure Average Seizure Score” value was 4.71 ± 0.16.
For the compound `CCCC(CCC)C(=O)O` [VPA, valproic acid, reference compound], in the test with PTZ-induced seizure (300 mg/kg i.p.), the “PTZ-Induced Seizure % Protection against GTCS” value is given as 100% and the “PTZ-Induced Seizure Average Seizure Score” value was found to be 0.00 ± 0.00. In addition, in the test with STR-induced seizure (300 mg/kg i.p.), the “STR-Induced Seizure % Protection against GTCS” value worked out at 100% and the “STR-Induced Seizure Average Seizure Score” value worked out at 0.
